Molecular target: PD-1/PD-L1 interaction (PD-1-Ig / PD-L1-His) (Homo sapiens (Human), UniProt Q9NZQ7)
Assay: PD-1/PD-L1 Homogenous Time-Resolved Fluorescence (HTRF) binding assay
Settings: PD-1/PD-L1 HTRF binding assay; numeric value; read-out: Range or IC50
Outline: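 Human PD-L1-His (10 nM final) was pre-incubated with inhibitor for 15 min, then PD-1-Ig (20 nM final) was added for a further 15 min in dPBS with 0.1% BSA and 0.05% Tween-20. Binding was detected by HTRF using Eu-cryptate anti-Ig (1 nM) and APC anti-His (20 nM).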

PD-1/PD-L1 interaction (PD-1-Ig / PD-L1-His), sequence (Q9NZQ7 other isoform, or with tags, fused parts or gaps): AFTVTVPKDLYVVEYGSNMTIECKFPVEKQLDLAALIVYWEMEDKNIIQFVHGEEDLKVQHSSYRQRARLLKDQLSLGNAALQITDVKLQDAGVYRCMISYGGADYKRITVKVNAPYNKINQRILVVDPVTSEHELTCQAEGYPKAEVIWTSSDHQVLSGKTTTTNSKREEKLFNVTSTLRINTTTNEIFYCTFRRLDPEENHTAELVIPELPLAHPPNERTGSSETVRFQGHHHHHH

| Compound | IC50 [nM] |
| --- | --- |
| Cc1c(COc2cc(OCc3cncc(C(=O)O)c3)c(CN[C@@H](CCCN)C(=O)O)cc2Cl)cccc1-c1ccc2c(c1)OCCO2 [Example 2002, (S)-5-((2-(((4-amino-1-carboxybutyl)amino)methyl)-4-chloro-5-((3-(2,3-dihydrobenzo[b][1,4]dioxin-6-yl)-2-methylbenzyl)oxy)phenoxy)methyl)nicotinic acid] | 10 |
| Cc1c(COc2cc(OCc3cncc(C#N)c3)c(CN[C@@H](Cc3cccnc3)C(=O)O)cc2Cl)cccc1-c1ccc2c(c1)OCCO2 [Example 2010, (S)-2-((5-chloro-2-((5-cyanopyridin-3-yl)methoxy)-4-((3-(2,3-dihydrobenzo[b][1,4]dioxin-6-yl)-2-methylbenzyl)oxy)benzyl)amino)-3-(pyridin-3-yl)propanoic acid] | 50 |

Same assay, conditions: PD-1/PD-L1 HTRF binding assay; value given as range class; read-out: Range or IC50

| Compound | IC50 [nM] |
| --- | --- |
| Cc1c(COc2cc(OCc3cncc(C#N)c3)c(CN[C@@](C)(CO)C(=O)O)cc2Br)cccc1-c1ccc2c(c1)OCCO2 [Example 1321, (S)-2-(5-bromo-2-((5-cyanopyridin-3-yl)methoxy)-4-(3-(2,3-dihydrobenzo[b][1,4]dioxin-6-yl)-2-methylbenzyloxy)benzylamino)-3-hydroxy-2-methylpropanoic acid] | 0.6 to 10 |
| Cc1c(COc2cc(OCc3cncc(C#N)c3)c(CNCCO)cc2Br)cccc1-c1ccc2c(c1)OCCO2 [Example 1322, 5-((4-bromo-5-(3-(2,3-dihydrobenzo[b][1,4]dioxin-6-yl)-2-methylbenzyloxy)-2-((2-hydroxyethylamino)methyl)phenoxy)methyl)nicotinonitrile] | 0.6 to 10 |
| Cc1c(COc2cc(OCc3cncc(C#N)c3)c(CN3CCCC[C@@H]3C(=O)O)cc2Br)cccc1-c1ccc2c(c1)OCCO2 [Example 1323, (R)-1-(5-bromo-2-((5-cyanopyridin-3-yl)methoxy)-4-(3-(2,3-dihydrobenzo[b][1,4]dioxin-6-yl)-2-methylbenzyloxy)benzyl)piperidine-2-carboxylic acid] | 0.6 to 10 |
| Cc1c(C#N)cncc1COc1cc(OCc2cccc(-c3ccccc3)c2C)ccc1CN[C@H](CO)C(=O)O [Example 1324, (R)-2-(2-((5-cyano-4-methylpyridin-3-yl)methoxy)-4-((2-methylbiphenyl-3-yl)methoxy)benzylamino)-3-hydroxypropanoic acid] | 10 to 100 |
| Cc1c(COc2ccc(CN[C@H](CO)C(=O)O)c(OCc3cccc(C(N)=O)c3)c2)cccc1-c1ccc2c(c1)OCCO2 [Example 1325, (R)-2-((2-((3-carbamoylbenzyl)oxy)-4-((3-(2,3-dihydrobenzo[b][1,4]dioxin-6-yl)-2-methylbenzyl)oxy)benzyl)amino)-3-hydroxypropanoic acid] | 10 to 100 |
| Cc1c(COc2ccc(CN[C@](C)(CO)C(=O)O)c(OCc3cccc(C(N)=O)c3)c2)cccc1-c1ccc2c(c1)OCCO2 [Example 1326, (R)-2-((2-((3-carbamoylbenzyl)oxy)-4-((3-(2,3-dihydrobenzo[b][1,4]dioxin-6-yl)-2-methylbenzyl)oxy)benzyl)amino)-3-hydroxy-2-methylpropanoic acid] | 0.6 to 10 |
| Cc1c(COc2ccc(CN[C@H](CO)C(=O)O)c(OCc3cncc(C#N)c3)c2)cccc1-c1ccccc1 [Example 1327, (R)-2-((2-((5-cyanopyridin-3-yl)methoxy)-4-((2-methyl-[1,1′-biphenyl]-3-yl)methoxy)benzyl)amino)-3-hydroxypropanoic acid] | 0.6 to 10 |
| Cc1c(COc2ccc(CNC[C@@H](O)CC(=O)O)c(OCc3cncc(C#N)c3)c2)cccc1-c1ccccc1 [Example 1328, (S)-4-((2-((5-cyanopyridin-3-yl)methoxy)-4-((2-methyl-[1,1′-biphenyl]-3-yl)methoxy)benzyl)amino)-3-hydroxybutanoic acid] | 0.6 to 10 |
| Cc1c(COc2ccc(CN3CCCC[C@H]3C(=O)O)c(OCc3cncc(C#N)c3)c2)cccc1-c1ccccc1 [Example 1329, (S)-1-(2-((5-cyanopyridin-3-yl)methoxy)-4-((2-methyl-[1,1′-biphenyl]-3-yl)methoxy)benzyl)piperidine-2-carboxylic acid] | 0.6 to 10 |
| Cc1c(COc2ccc(CNC[C@@H](O)CC(=O)O)c(OCc3ccc(F)c(C#N)c3)c2)cccc1-c1ccccc1 [Example 1331, (S)-4-((2-((3-cyano-4-fluorobenzyl)oxy)-4-((2-methyl-[1,1′-biphenyl]-3-yl)methoxy)benzyl)amino)-3-hydroxybutanoic acid] | 0.6 to 10 |
| Cc1c(COc2ccc(CN[C@H](CO)C(=O)O)c(OCc3ccc(F)c(C#N)c3)c2)cccc1-c1ccccc1 [Example 1332, (R)-2-((2-((3-cyano-4-fluorobenzyl)oxy)-4-((2-methyl-[1,1′-biphenyl]-3-yl)methoxy)benzyl)amino)-3-hydroxypropanoic acid] | 0.6 to 10 |
| Cc1c(COc2ccc(CN[C@](C)(CO)C(=O)O)c(OCc3ccc(F)c(C#N)c3)c2)cccc1-c1ccccc1 [Example 1333, (R)-2-((2-((3-cyano-4-fluorobenzyl)oxy)-4-((2-methyl-[1,1′-biphenyl]-3-yl)methoxy)benzyl)amino)-3-hydroxy-2-methylpropanoic acid] | 0.6 to 10 |
| Cc1c(COc2ccc(CN3CCCC[C@H]3C(=O)O)c(OCc3ccc(F)c(C#N)c3)c2)cccc1-c1ccccc1 [Example 1334, (S)-1-(2-((3-cyano-4-fluorobenzyl)oxy)-4-((2-methyl-[1,1′-biphenyl]-3-yl)methoxy)benzyl)piperidine-2-carboxylic acid] | 0.6 to 10 |
| CCOC(=O)c1cncc(COc2cc(OCc3cccc(-c4ccc5c(c4)OCCO5)c3C)c(Cl)cc2CN[C@@](C)(CO)C(=O)O)c1 [Example 2000, (S)-2-((5-chloro-4-((3-(2,3-dihydrobenzo[b][1,4]dioxin-6-yl)-2-methylbenzyl)oxy)-2-((5-(ethoxycarbonyl)pyridin-3-yl)methoxy)benzyl)amino)-3-hydroxy-2-methylpropanoic acid] | 100 to 20000 |

More lines, now with the values ahead:

| IC50 [nM] | Compound |
| --- | --- |
| 0.6 to 10 | Cc1c(COc2cc(OCc3cncc(C(=O)O)c3)c(CN[C@@](C)(CO)C(=O)O)cc2Cl)cccc1-c1ccc2c(c1)OCCO2 [Example 2001, (S)-5-((2-(((2-carboxy-1-hydroxypropan-2-yl)amino)methyl)-4-chloro-5-((3-(2,3-dihydrobenzo[b][1,4]dioxin-6-yl)-2-methylbenzyl)oxy)phenoxy)methyl)nicotinic acid] |
| 0.6 to 10 | Cc1c(COc2cc(OCc3cncc(C#N)c3)c(CN[C@@H](CCCN)C(=O)O)cc2Cl)cccc1-c1ccc2c(c1)OCCO2 [Example 2003, (S)-5-amino-2-((5-chloro-2-((5-cyanopyridin-3-yl)methoxy)-4-((3-(2,3-dihydrobenzo[b][1,4]dioxin-6-yl)-2-methylbenzyl)oxy)benzyl)amino)pentanoic acid] |
| 0.6 to 10 | Cc1c(COc2cc(OCc3cncc(C#N)c3)c(CN[C@@H](CCCCN)C(=O)O)cc2Cl)cccc1-c1ccc2c(c1)OCCO2 [Example 2004, (S)-6-amino-2-((5-chloro-2-((5-cyanopyridin-3-yl)methoxy)-4-((3-(2,3-dihydrobenzo[b][1,4]dioxin-6-yl)-2-methylbenzyl)oxy)benzyl)amino)hexanoic acid] |
| 10 to 100 | Cc1c(COc2cc(OCc3cncc(C#N)c3)c(CN[C@@H](CCN)C(=O)O)cc2Cl)cccc1-c1ccc2c(c1)OCCO2 [Example 2005, (S)-4-amino-2-((5-chloro-2-((5-cyanopyridin-3-yl)methoxy)-4-((3-(2,3-dihydrobenzo[b][1,4]dioxin-6-yl)-2-methylbenzyl)oxy)benzyl)amino)butanoic acid] |
| 0.6 to 10 | Cc1c(COc2cc(OCc3cncc(C#N)c3)c(CN[C@@H](CCCCN(C)C)C(=O)O)cc2Cl)cccc1-c1ccc2c(c1)OCCO2 [Example 2006, (S)-2-((5-chloro-2-((5-cyanopyridin-3-yl)methoxy)-4-((3-(2,3-dihydrobenzo[b][1,4]dioxin-6-yl)-2-methylbenzyl)oxy)benzyl)amino)-6-(dimethylamino)hexanoic acid] |
| 0.6 to 10 | Cc1c(COc2cc(OCc3cncc(C#N)c3)c(CN3C[C@@H](O)CC[C@H]3C(=O)O)cc2Cl)cccc1-c1ccc2c(c1)OCCO2 [Example 2007, (2S,5S)-1-(5-chloro-2-((5-cyanopyridin-3-yl)methoxy)-4-((3-(2,3-dihydrobenzo[b][1,4]dioxin-6-yl)-2-methylbenzyl)oxy)benzyl)-5-hydroxypiperidine-2-carboxylic acid] |
| 0.6 to 10 | Cc1c(COc2cc(OCc3cncc(C#N)c3)c(CN3CC[C@@H](O)C[C@H]3C(=O)O)cc2Cl)cccc1-c1ccc2c(c1)OCCO2 [Example 2008, (2S,4R)-1-(5-chloro-2-((5-cyanopyridin-3-yl)methoxy)-4-((3-(2,3-dihydrobenzo[b][1,4]dioxin-6-yl)-2-methylbenzyl)oxy)benzyl)-4-hydroxypiperidine-2-carboxylic acid] |
| 0.6 to 10 | Cc1c(COc2cc(OCc3cncc(C#N)c3)c(CN[C@@H](Cc3ccccn3)C(=O)O)cc2Cl)cccc1-c1ccc2c(c1)OCCO2 [Example 2009, (S)-2-((5-chloro-2-((5-cyanopyridin-3-yl)methoxy)-4-((3-(2,3-dihydrobenzo[b][1,4]dioxin-6-yl)-2-methylbenzyl)oxy)benzyl)amino)-3-(pyridin-2-yl)propanoic acid] |
| 10 to 100 | Cc1c(COc2cc(OCc3cncc(C#N)c3)c(CN[C@@H](Cc3ccncc3)C(=O)O)cc2Cl)cccc1-c1ccc2c(c1)OCCO2 [Example 2011, (S)-2-((5-chloro-2-((5-cyanopyridin-3-yl)methoxy)-4-((3-(2,3-dihydrobenzo[b][1,4]dioxin-6-yl)-2-methylbenzyl)oxy)benzyl)amino)-3-(pyridin-4-yl)propanoic acid] |
| 0.6 to 10 | Cc1c(COc2cc(OCc3cncc(C#N)c3)c(CN[C@@H](CCC(=O)O)C(=O)O)cc2Cl)cccc1-c1ccc2c(c1)OCCO2 [Example 2012, (S)-2-((5-chloro-2-((5-cyanopyridin-3-yl)methoxy)-4-((3-(2,3-dihydrobenzo[b][1,4]dioxin-6-yl)-2-methylbenzyl)oxy)benzyl)amino)pentanedioic acid] |

— patent publication US9850225B2, “Compounds useful as immunomodulators” (BRISTOL-MYERS SQUIBB COMPANY, priority 2014, dated 2017)
